From PubChem BioAssay AID2060883 (Molecular Pharmacology Branch, DTP, NCI, 2025)

Test system: 843782-103-R-J1-PDC complex spheroid viability
Test: Anticancer human tumor 843782-103-R-J1-PDC patient-derived lung adenocarcinoma cell line growth inhibition [RAS]
Conditions: for IC50: curve of first compound; for viability, T/C: stronger effect = lower value; active = viability on the fitted dose curve at most 10% of control; inactive = the rest
From the text: RAS pathway inhibitors in Combinations in Complex Spheroids
A high-throughput screen of multi-cell type tumor spheroids was designed to identify active combinations of RAS pathway inhibitors and targeted small molecules. Complex spheroids include a stromal component modeled by human endothelial cells (HUVEC) and fibroblasts modeled by human mesenchymal stem cells (MSCs). The concentration ranges selected for each drug and investigational agent were based upon clinically achievable concentrations if the clinical Cmax of the agent was known.
Compounds. The drugs and investigational agents: abemaciclib (NSC768073), cobimetinib (NSC768068), divarasib (GDC6063, NSC841802), docetaxel (NSC628503), GDC-1971 (RLY-1971, NSC841576), gemcitabine (NSC613327), inavolisib (NSC800729), ipatasertib (NSC767898), KB-0742 (NSC834161), MRTX-1133 (NSC836407), osimertinib (NSC779217), RMC-4630 (NSC839698), RMC-6236 (NSC851965), RMC-6291 (NSC852671), Ro-3306 (NSC812927), sapanisertib (NSC764658), SN-38 (NSC673596), staurosporine (NSC755774), SY5609 (NSC837396), and tovorafenib (DAY101, NSC766906), were obtained from the National Cancer Institute (NCI) Developmental Therapeutics Program Chemical Repository. The FDA-approved anticancer drug set is available from the NCI Developmental Therapeutics Program. […] The stock solutions were prepared in dimethyl sulfoxide (DMSO, Sigma-Aldrich, St. Louis, MO, cat. D2650) at 800-fold the tested concentration and stored at -70 degrees C prior to their use. All drugs and investigational agents were tested over a range starting from a high concentration at or near the clinical Cmax and decreasing in half-log increments. If the clinical Cmax for an agent had not been determined, the highest concentration tested was 10 microM.
Cell Culture. All cells were maintained in an incubator at 37 degrees C and 5% CO2 with 95% humidity. The PDC lines were cultured according to standard operating procedures established by the NCI PDMR. All PDCs were thawed and cultured in Matrigel-coated flasks prepared with a working solution of 1X Ham's F-12 nutrient mix, without supplementation (Invitrogen, Waltham, MA, cat. 11765054), 100 U/mL penicillin-streptomycin (Invitrogen, cat. 15140122), and 2.5% Matrigel (Corning Inc., Corning, NY, cat. 354248) for the first three passages. The 362531-283-R-J2-PDC and 782815-120-R-J1-PDC lines were cultured in 6C/Colon 1B media, which includes advanced DMEM/F-12 (Thermo Fisher Scientific, cat. 12634028), 10 mM HEPES (Thermo Fisher Scientific, cat. 15630080), 1X GlutaMAX supplement (Thermo Fisher Scientific, cat. 35050061), 0.1 mg/mL primocin (InvivoGen, San Diego, CA, cat. ant-pm-2), 10% defined fetal bovine serum, heat inactivated (HyClone Laboratories Inc., Logan, UT, cat. SH30070.03HI), 50% L-WRN conditioned media (ATCC, cat. CRL-3276), 1.25 mM N-Acetyl-L-cysteine (Sigma-Aldrich, cat. A9165), 10 mM nicotinamide (Sigma-Aldrich, cat. N0636), 1X B-27 supplement (Thermo Fisher Scientific, cat. 17504044), 1X N-2 supplement (Thermo Fisher Scientific, cat. 17502048), 50 ng/mL human EGF (Thermo Fisher Scientific, cat. PHG0311), and 10 microM Y-27632 dihydrochloride (Tocris Bioscience, cat. 1254). The K12877-001-R-J1-PDC line was cultured in 6I media, which includes all 6C/Colon 1B media plus 10 ng/mL human FGF-10 (PeproTech, cat. 100-26), 1 ng/mL human FGF-2 (PeproTech, cat. 100-18B), 1 µM prostaglandin E2 (Tocris Bioscience, cat. 2296), […] hydrocortisone (Sigma-Aldrich, cat. H4001), and […] bovine insulin (Sigma-Aldrich, cat. I6634). The K86415-001-R-J1-PDC line was cultured in 6D media, which includes all 6C/Colon 1B media components minus the L-WRN conditioned media. The 485176-168-R4-J1-PDC was cultured in PANC media, which includes all 6C/Colon 1B media plus 100 ng/mL human FGF-10 (PeproTech, cat. 100-26), 500 nM SB-431542 (Selleckchem, cat. S1067), and 10 nM gastrin (Tocris Bioscience, cat. 3006). […]
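Also: viability read after seven days of compound exposure.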

CCc1c2c(nc3ccc(O)cc13)-c1cc3c(c(=O)n1C2)COC(=O)[C@]3(O)CC + C=CC(=O)N1CCN(c2nc(OCC3CCCN3C)nc3c(F)c(-c4nc(N)cc(C)c4C(F)(F)F)c(Cl)cc23)C(C)C1
1.67 nM: IC50 (second compound 0.00316 µM)
1.54 nM: IC50 (second compound 0.316 µM)
inactive: viability, T/C (second compound 0.00316 µM, first compound 0.000949 µM) 80.4% | viability, T/C (second compound 0.00316 µM, first compound 0.003 µM) 18.2% | viability, T/C (second compound 0.01 µM, first compound 0.000949 µM) 72.8% | viability, T/C (second compound 0.01 µM, first compound 0.003 µM) 16.8% | viability, T/C (second compound 0.0316 µM, first compound 0.000949 µM) 72.6% | viability, T/C (second compound 0.0316 µM, first compound 0.003 µM) 19.5% | viability, T/C (second compound 0.1 µM, first compound 0.000949 µM) 73.6% | viability, T/C (second compound 0.1 µM, first compound 0.003 µM) 18.1% | viability, T/C (second compound 0.316 µM, first compound 0.000949 µM) 70.7% | viability, T/C (second compound 0.316 µM, first compound 0.003 µM) 21.1% | viability, T/C (second compound 1 µM, first compound 0.000949 µM) 67.7% | viability, T/C (second compound 1 µM, first compound 0.003 µM) 24.5%
active: viability, T/C (second compound 0.00316 µM, first compound 0.00949 µM) 6.35% | viability, T/C (second compound 0.00316 µM, first compound 0.03 µM) 2.5% | viability, T/C (second compound 0.00316 µM, first compound 0.0949 µM) 1.18% | viability, T/C (second compound 0.00316 µM, first compound 0.3 µM) 0.74% | viability, T/C (second compound 0.01 µM, first compound 0.00949 µM) 8.52% | viability, T/C (second compound 0.01 µM, first compound 0.03 µM) 3.04% | viability, T/C (second compound 0.01 µM, first compound 0.0949 µM) 0.93% | viability, T/C (second compound 0.01 µM, first compound 0.3 µM) 0.76% | viability, T/C (second compound 0.0316 µM, first compound 0.00949 µM) 7.44% | viability, T/C (second compound 0.0316 µM, first compound 0.03 µM) 2.35% | viability, T/C (second compound 0.0316 µM, first compound 0.0949 µM) 1.24% | viability, T/C (second compound 0.0316 µM, first compound 0.3 µM) 0.8% | viability, T/C (second compound 0.1 µM, first compound 0.00949 µM) 7.09% | viability, T/C (second compound 0.1 µM, first compound 0.03 µM) 1.96% | viability, T/C (second compound 0.1 µM, first compound 0.0949 µM) 1.46% | viability, T/C (second compound 0.1 µM, first compound 0.3 µM) 0.64% | viability, T/C (second compound 0.316 µM, first compound 0.00949 µM) 7.83% | viability, T/C (second compound 0.316 µM, first compound 0.03 µM) 2.85% | viability, T/C (second compound 0.316 µM, first compound 0.0949 µM) 1.34% | viability, T/C (second compound 0.316 µM, first compound 0.3 µM) 0.99% | viability, T/C (second compound 1 µM, first compound 0.00949 µM) 7.99% | viability, T/C (second compound 1 µM, first compound 0.03 µM) 3.23% | viability, T/C (second compound 1 µM, first compound 0.0949 µM) 1.57% | viability, T/C (second compound 1 µM, first compound 0.3 µM) 0.98%
1.56 nM: IC50 (second compound 0.0316 µM) | IC50 (second compound 0.1 µM)
1.52 nM: IC50 (second compound 0.01 µM) | IC50 (second compound 1 µM)
